The record followed here is patent US8044198B2, “Sirtuin modulating compounds” (Sirtris Pharmaceuticals, Inc., priority 2005, dated 2011).

The assay has as its target T1, SIRT1 (Homo sapiens, UniProt Q96EB6).
T1 sequence (Q96EB6 1-747): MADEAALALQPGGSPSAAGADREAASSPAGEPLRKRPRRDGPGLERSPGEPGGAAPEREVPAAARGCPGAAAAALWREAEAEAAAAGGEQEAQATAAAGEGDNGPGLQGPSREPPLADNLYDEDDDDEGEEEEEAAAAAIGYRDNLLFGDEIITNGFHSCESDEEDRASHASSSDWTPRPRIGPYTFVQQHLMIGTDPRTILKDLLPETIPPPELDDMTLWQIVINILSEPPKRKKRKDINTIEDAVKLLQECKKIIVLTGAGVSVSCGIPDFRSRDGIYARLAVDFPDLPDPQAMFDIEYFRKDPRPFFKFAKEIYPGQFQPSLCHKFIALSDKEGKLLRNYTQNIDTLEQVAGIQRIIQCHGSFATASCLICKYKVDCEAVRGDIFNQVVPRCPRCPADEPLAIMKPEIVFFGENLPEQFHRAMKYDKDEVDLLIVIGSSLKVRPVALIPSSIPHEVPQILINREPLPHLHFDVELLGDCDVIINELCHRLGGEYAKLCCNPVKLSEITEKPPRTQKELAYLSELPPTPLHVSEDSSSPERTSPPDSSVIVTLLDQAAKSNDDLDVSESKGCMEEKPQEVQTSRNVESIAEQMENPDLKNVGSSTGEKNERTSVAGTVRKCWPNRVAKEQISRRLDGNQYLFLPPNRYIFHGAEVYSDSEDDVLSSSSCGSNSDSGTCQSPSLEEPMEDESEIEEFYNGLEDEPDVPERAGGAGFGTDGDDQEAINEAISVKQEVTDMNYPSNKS
Kind of assay: SIRT1 mass spectrometry (MS) based deacetylation assay. The format is biochemical. The following applies: for EC50: read-out: ED50 MS ASSAY.

The mark [1] stands for this setting: SIRT1 activation, mass spectrometry assay.
Setting [2] is: fold activation of SIRT1 as determined by MS.
[3] abbreviates: Sirt1 activators, mass spectrometry assay.
Setting [4] is: Sirt1 activators, fold activation as determined by MS.
Setting [5] is: fold activation of SIRT1, mass spectrometry assay.
[6] abbreviates: SIRT1 fold activation as determined by MS.

Molecules are shown by their SMILES. Like-named read-outs stand apart in the source and are kept apart here. A value given as a limit tells only on which side of the number the result lay.

In the case of `COc1ccc(C(=O)Nc2cc(CN(C)C)cc(-c3nc4ncccc4o3)c2)cc1OC` [Compound 156], the EC50 under setting [1] lay in the range of 5 to 50 µM. Moreover, the “FOLD ACT. MS” value under setting [2] is “B (B (Fold Activation <250%))”.

For the compound `COc1ccc(CNC(=S)Nc2cccc(-c3nc4ccncc4s3)c2)cc1` [Compound 498], the EC50 under setting [3] is 5 to 50 µM. Take `CN(C)c1cccc(C(=O)Nc2cccc(-c3nc4ncccc4[nH]3)c2)c1` [Compound 183]: under setting [1], the EC50 is 5 to 50 µM. Besides, the “FOLD ACT. MS” value under setting [2] is “A (A (Fold activation >250%))”. Regarding `CN(C)c1cccc(C(=O)Nc2cc(C(=O)N3CCNCC3)cc(-c3nc4ncccc4o3)c2)c1` [Compound 138], the EC50 under setting [1] was in the range of 5 to 50 µM. Under setting [2], the “FOLD ACT. MS” value was “B (B (Fold Activation <250%))”. Taken in the same sequence, the figures for `COc1cc(OC)cc(C(=O)Nc2sccc2-c2nc3ccccc3s2)c1` [Compound 146] were below 5 µM and “B (B (Fold Activation <250%))”. For the compound `O=C(Nc1ccccc1-c1nc2ccccc2[nH]1)c1ccc2ccccc2n1` [Compound 556], under setting [4], the “FOLD ACT. MS” value is reported as “A (A (Fold activation >250%))”. Moreover, the EC50 under setting [3] is below 5 µM. Take `COc1cc(C(=O)Nc2cc(-c3nc4ncccc4o3)ccn2)ccc1CN1CCN(Cc2ccccc2)CC1` [Compound 643]: the “FOLD ACT. MS” value under setting [4] is given as “B (B (Fold Activation <250%))”. In addition, the EC50 under setting [3] lay within 5 to 50 µM. For `COc1ccc(C(=O)Nc2cccc(-c3cn4ccc(C)cc4n3)c2)c(OC)c1` [Compound 128], the EC50 under setting [1] was 5 to 50 µM. For the same compound, under setting [2], the “FOLD ACT. MS” value is reported as “B (B (Fold Activation <250%))”. Regarding `CN(C)CCOCc1csc2nc(-c3ccccc3NC(=O)c3cnc4ccccc4n3)cn12` [Compound 647], under setting [4], the “FOLD ACT. MS” value is recorded as “A (A (Fold activation >250%))”. Moreover, under setting [3], the EC50 was below 5 µM. Consider `COc1cc(C(=O)Nc2cccc(-c3nc4ccncc4o3)c2)cc(OC)c1OC` [Compound 430], for which the EC50 under setting [1] was 5 to 50 µM. The “FOLD ACT. MS” value under setting [5] is listed as “A (A (Fold activation >250%))”.

`COc1cccc(C(=O)Nc2cccc(-c3nc4cccnc4s3)c2)c1` [Compound 212]: the EC50 under setting [1] lay within 5 to 50 µM. Also, the “FOLD ACT. MS” value under setting [2] is reported as “B (B (Fold Activation <250%))”.

As for `COc1ccc(C(=O)Nc2cc(C(=O)NCCN(C)C)cc(-c3nc4ncccc4o3)c2)cc1OC` [Compound 153], the EC50 under setting [1] was 5 to 50 µM. Further, under setting [2], the “FOLD ACT. MS” value is “B (B (Fold Activation <250%))”. In the case of `COc1ccc(C(=O)Nc2cccc(-c3csc(-c4ccccc4)n3)c2)cc1OC` [Compound 84], under setting [1], the EC50 fell in the range of 5 to 50 µM. Further, under setting [2], the “FOLD ACT. MS” value is listed as “B (B (Fold Activation <250%))”. As to `COc1cc(C(=O)Nc2ccccc2-c2nc3cccnc3[nH]2)cc(OC)c1OC` [Compound 522], the “FOLD ACT. MS” value under setting [4] is “A (A (Fold activation >250%))”. The EC50 under setting [3] was in the range of 5 to 50 µM.

As to `COc1ccc(C(=O)Nc2ccccc2-c2nc3ccncc3o2)c(OC)c1` [Compound 455], the EC50 under setting [1] is below 5 µM. Moreover, under setting [5], the “FOLD ACT. MS” value is “B (B (Fold Activation <250%))”. As to `COc1ccc(C(=O)Nc2ccccc2-c2cn3c(CN4CCNCC4)csc3n2)cc1OC` [Compound 207], the EC50 under setting [1] lay within 5 to 50 µM. For the same compound, the “FOLD ACT. MS” value under setting [2] is “A (A (Fold activation >250%))”. `O=C(Nc1ccccc1-c1cn2c(n1)CCCC2)c1cnc2ccccc2n1` [Compound 548]: the “FOLD ACT. MS” value under setting [4] was “B (B (Fold Activation <250%))”. Besides, the EC50 under setting [3] was below 5 µM. Consider `O=C(Nc1ccccc1-c1nc2ccncc2s1)c1cnccn1` [Compound 391], for which, under setting [1], the EC50 is 5 to 50 µM. The “FOLD ACT. MS” value under setting [5] was “B (B (Fold Activation <250%))”. Take `COc1ccc(C(=O)Nc2ccccc2-c2cn3ccsc3n2)cc1OC` [Compound 203]: under setting [1], the EC50 was below 5 µM. For the same compound, the “FOLD ACT. MS” value under setting [2] is reported as “B (B (Fold Activation <250%))”. Turning to `CN(C)c1cccc(C(=O)Nc2ccc(-c3nc4cccnc4[nH]3)cc2)c1` [Compound 180], the EC50 under setting [1] fell in the range of 5 to 50 µM. For the same compound, under setting [2], the “FOLD ACT. MS” value is recorded as “B (B (Fold Activation <250%))”. In the case of `O=C(Nc1ccccc1-c1nc2cc(CN3CCOCC3)cnc2s1)c1ccc2ccccc2n1` [Compound 724], the EC50 under setting [1] is below 5 µM. Moreover, the “FOLD ACT. MS” value under setting [6] is “A (A (Fold activation >250%))”. Regarding `COc1cc(C(=O)Nc2ccccc2-c2cn3cccnc3n2)ccc1CN1CCOCC1` [Compound 542], under setting [4], the “FOLD ACT. MS” value is reported as “A (A (Fold activation >250%))”. In addition, the EC50 under setting [3] was in the range of 5 to 50 µM.

As to `O=C(Nc1ccccc1-c1cn2c(CN3CCCCC3)csc2n1)c1cnc2ccccc2n1` [Compound 618], the “FOLD ACT. MS” value under setting [4] is recorded as “B (B (Fold Activation <250%))”. Further, the EC50 under setting [3] was below 5 µM. In the case of `COc1ccc(C(=O)Nc2cccc(-c3cc4cccnc4o3)c2)c(OC)c1` [Compound 191], under setting [1], the EC50 was below 5 µM. Besides, the “FOLD ACT. MS” value under setting [2] is given as “B (B (Fold Activation <250%))”. `COc1ccc(C(=O)Nc2ccccc2-c2cn3cccnc3n2)c(OC)c1` [Compound 437]: the EC50 under setting [1] was in the range of 5 to 50 µM. The “FOLD ACT. MS” value under setting [5] is reported as “B (B (Fold Activation <250%))”. For the compound `COc1cc(C(=O)Nc2ccccc2-c2cn3c(CN(C)C)csc3n2)cc(OC)c1OC` [Compound 206], the EC50 under setting [1] is 5 to 50 µM. In addition, under setting [2], the “FOLD ACT. MS” value is given as “A (A (Fold activation >250%))”. In the case of `N=C(Nc1ccc(Cl)cc1)Nc1cc(-c2nc3ncccc3o2)ccn1` [Compound 634], the “FOLD ACT. MS” value under setting [4] was “B (B (Fold Activation <250%))”. In addition, under setting [3], the EC50 was above 150 µM.

Turning to `COc1cc(C(=O)Nc2ccccc2-c2cc3ccccc3[nH]2)cc(OC)c1OC` [Compound 255], the EC50 under setting [1] is below 5 µM. Further, the “FOLD ACT. MS” value under setting [5] is recorded as “B (B (Fold Activation <250%))”. With `COc1ccc(C(=O)Nc2cc(-c3nc4ncccc4o3)ccn2)cc1OC` [Compound 63], the EC50 under setting [1] is 5 to 50 µM. With `O=C(Nc1ccccc1-c1nc2cccnc2[nH]1)c1cccc(OC(F)(F)F)c1` [Compound 529], under setting [4], the “FOLD ACT. MS” value is “B (B (Fold Activation <250%))”. The EC50 under setting [3] is below 5 µM. For `COc1cc(C(=O)Nc2ccccc2-c2nc3ccccc3[nH]2)ccc1CN1CCNCC1` [Compound 558], the “FOLD ACT. MS” value under setting [4] is “A (A (Fold activation >250%))”. Besides, the EC50 under setting [3] is below 5 µM. `COc1ccc(C(=O)Nc2cccc(-c3nc4ccncc4o3)c2)c(OC)c1OC` [Compound 452]: the EC50 under setting [1] lay within 5 to 50 µM. For the same compound, the “FOLD ACT. MS” value under setting [5] is recorded as “B (B (Fold Activation <250%))”.

For the compound `Cc1cc(C(=O)Nc2ccccc2-c2nc3ccncc3s2)n(C(C)(C)C)n1` [Compound 462], under setting [3], the EC50 was below 5 µM. Consider `COc1ccc(C(=O)Nc2ccc(-c3nc4cnccc4s3)s2)c(OC)c1` [Compound 515], for which the “FOLD ACT. MS” value under setting [4] was “B (B (Fold Activation <250%))”. Moreover, the EC50 under setting [3] was below 5 µM. Consider `O=C(O)Cc1csc2nc(-c3ccccc3NC(=O)c3cnc4ccccc4n3)cn12` [Compound 721], for which the EC50 under setting [1] was in the range of 5 to 50 µM. Besides, the “FOLD ACT. MS” value under setting [6] is listed as “A (A (Fold activation >250%))”. With `COc1cc(C(=O)Nc2ccccc2-n2cccn2)cc(OC)c1OC` [Compound 176], the EC50 under setting [1] is 51 to 100 µM. Moreover, the “FOLD ACT. MS” value under setting [2] was “B (B (Fold Activation <250%))”.

For `COc1cc(C(=O)Nc2ccccc2-c2cn3c(CN4CCOCC4)csc3n2)cc(OC)c1OC` [Compound 210], the EC50 under setting [1] is 5 to 50 µM. In addition, the “FOLD ACT. MS” value under setting [2] is on record as “B (B (Fold Activation <250%))”. In the case of `COc1cc(C(=O)Nc2cccc(-c3nc4sccn4n3)c2)cc(OC)c1OC` [Compound 118], under setting [1], the EC50 was in the range of 5 to 50 µM. Besides, under setting [2], the “FOLD ACT. MS” value is reported as “A (A (Fold activation >250%))”.

For the compound `COc1cc(C(=O)Nc2ccccc2-c2nc3cc(CN4CCNCC4)cnc3s2)cc(OC)c1OC` [Compound 588], under setting [4], the “FOLD ACT. MS” value is recorded as “A (A (Fold activation >250%))”. Moreover, under setting [3], the EC50 lay in the range of 5 to 50 µM. `COc1ccc(C(=O)Nc2cccc(-c3nc4cccnc4s3)c2)cc1` [Compound 216]: the EC50 under setting [1] was below 5 µM. Moreover, the “FOLD ACT. MS” value under setting [2] is on record as “B (B (Fold Activation <250%))”. For `COc1cc(C(=O)N(C)c2ccccc2-c2nc3ncccc3o2)cc(OC)c1OC` [Compound 292, 3,4,5-Trimethoxy-N-methyl-N-(2-oxazolo[4,5-b]pyridin-2-yl-phenyl)-benzamide], the EC50 under setting [1] is above 150 µM.

For `COc1ccc(C(=O)Nc2cc(C(=O)NCCN(C)C)cc(-c3nc4ncccc4o3)c2)c(OC)c1` [Compound 155], under setting [1], the EC50 fell in the range of 5 to 50 µM. Also, under setting [2], the “FOLD ACT. MS” value was “B (B (Fold Activation <250%))”. One may read the IC50 as the midpoint of a concentration-inhibition curve. A high value points to weaker potency in that assay. As for `COc1ccc(C)cc1S(=O)(=O)Nc1cc(-c2nc3ncccc3o2)ccn1` [Compound 653], where the note is “Sirt1 Inhibitors, mass spectrometry assay”, the half-inhibitory concentration (IC50) fell in the range of 101 to 150 µM. As for `O=C(Nc1cccc(-c2nc3ccncc3s2)c1)c1ccc(-c2ccccc2)o1` [Compound 241], the EC50 under setting [1] was below 5 µM. In addition, the “FOLD ACT. MS” value under setting [5] is “B (B (Fold Activation <250%))”. `CSc1ccc(C(=O)Nc2ccccc2-c2cn3c(CN4CCNCC4)csc3n2)cc1` [Compound 444]: the EC50 under setting [1] fell in the range of 5 to 50 µM. Further, the “FOLD ACT. MS” value under setting [5] is given as “A (A (Fold activation >250%))”.
